# How the values were obtained:
# [1] = target: T1, glucocorticoid receptor recombinant human protein, ligand binding domain (LBD) (Homo sapiens, UniProt P04150); assay: nuclear receptor cofactor recruitment peptide array (70 coregulator peptides), ligand induced cofactor peptide interaction profiling; format: biochemical; settings: for weighted log fold change: example 3, weight factors of table 7
# T1 construct: purchased Thermo Fisher Scientific A15668
# T1 sequence (P04150 524-758 limits assumed): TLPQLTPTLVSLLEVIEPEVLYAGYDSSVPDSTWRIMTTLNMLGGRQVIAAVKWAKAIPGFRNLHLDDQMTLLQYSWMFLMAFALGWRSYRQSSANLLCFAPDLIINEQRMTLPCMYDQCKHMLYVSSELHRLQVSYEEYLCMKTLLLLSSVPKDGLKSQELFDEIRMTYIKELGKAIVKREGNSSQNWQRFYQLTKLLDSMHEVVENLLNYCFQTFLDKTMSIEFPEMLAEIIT
# Protocol: Interactions between the glucocorticoid receptor ligand binding domain and the selected drugs for repurposing and coregulator peptides were determined using the method as described by Zalachoras et al 2013^xxvii Each peptide array consisting of 70 coregulator peptides as described in table 1 were incubated with a reaction mixture of 1 nM purified glucocorticoid receptor recombinant human protein, ligand binding domain (LBD), (Thermo Fisher Scientific, cat #A15668), ALEXA488-conjugated anti-GST antibody and buffer F (PV4689, A-11131, and PV4547; Invitrogen). […] For ligand induced cofactor peptide interaction profiling the set of repurposing drugs were tested at a concentration of 0.05 mM compared to solvent (2% DMSO in water). Incubation was performed at 20° C. on the cofactor peptide array. Glucocorticoid receptor binding to each peptide on the array, reflected by fluorescent signal, was quantified by image analysis using R-based software (Precision Medicine Lab). The 70 coregulator peptides used represent a range of coregulator nuclear receptor-boxes known to interact with the glucocorticoid receptor and other nuclear receptors. The binding profiles were generated for glucocorticoid receptor-LBD treated with the repurposing drugs vs cortisol.
# The R2 is calculated using the data for each of the 70 cofactor peptides using the same weight.
# In this example a weight factor was applied on the log fold change data of example 1 to determine the similarities between the tested repositioning drugs versus cortisol using the coefficient of determination, R2, between the weighted log fold change data of the tested repurposing drug to the positive control, cortisol. […] In this example 14 cofactor peptides were used (table 3).
# [2] = target: T1, glucocorticoid receptor recombinant human protein, ligand binding domain (LBD); assay: as above; format: biochemical; settings: example 3, weight factors of table 7
smiles,measurement,setting,value
"C[C@]12CCC(=O)C=C1CC[C@@H]1[C@@H]2[C@@H](O)C[C@@]2(C)[C@H]1CC[C@]2(O)C(=O)CO [PC, Cortisol]","binding to coregulator peptide no 22 NCOA1_1421_1444 compared to the negative control (NC), DMSO","[1]; FIG. 2, 0.05 mM",increased binding
same,weighted log fold change,[1]; peptide 24 NCOA1_738_759,0.168
same,weighted log fold change,[1]; peptide 26 NCOA2_679_700,0.056
same,weighted log fold change,[1]; peptide 27 NCOA2_734_755,0.366
same,weighted log fold change,[1]; peptide 52 PELP1_21_42,0.028
same,weighted log fold change,[1]; peptide 58 PRGC1_134_154,0.835
same,weighted log fold change,[1]; peptide 59 PRGC2_146_166,0.113
same,weighted log fold change,[1]; peptide 63 TIF1A_748_769,0.058
same,weighted log fold change,[1]; peptide 68 UBE3A_650_671,0.357
same,weighted log fold change,[1]; peptide 70 ZNHI3_90_111,0.025
same,log fold change,"[1]; example 4, weight factor of 1, peptide 11 IKBB_278_299",0.611
same,log fold change,"[1]; example 4, weight factor of 1, peptide 27 NCOA2_734_755",1.465
same,log fold change,"[1]; example 4, weight factor of 1, peptide 59 PRGC2_146_166",0.902
same,log fold change,"[1]; example 4, weight factor of 1, peptide 68 UBE3A_650_671",1.430
same,log fold change,"[1]; peptide 1 ANDR_11_32, 0.05 mM vs solvent (2% DMSO)",0.549
same,log fold change,"[1]; peptide 2 CBP_2056_2077, 0.05 mM vs solvent (2% DMSO)",0.473
same,log fold change,"[1]; peptide 3 CENPR_159_177, 0.05 mM vs solvent (2% DMSO)",0.669
same,log fold change,"[1]; peptide 4 CHD9_1024_1045, 0.05 mM vs solvent (2% DMSO)",0.375
same,log fold change,"[1]; peptide 5 CNOT1_141_162, 0.05 mM vs solvent (2% DMSO)",0.446
same,log fold change,"[1]; peptide 6 CNOT1_558_579, 0.05 mM vs solvent (2% DMSO)",0.386
same,log fold change,"[1]; peptide 7 DHX30_49_70, 0.05 mM vs solvent (2% DMSO)",0.446
same,log fold change,"[1]; peptide 8 EP300_2040_2061, 0.05 mM vs solvent (2% DMSO)",0.383
same,log fold change,"[1]; peptide 9 EP300_70_91, 0.05 mM vs solvent (2% DMSO)",0.813
same,log fold change,"[1]; peptide 11 IKBB_278_299, 0.05 mM vs solvent (2% DMSO)",0.611
same,log fold change,"[1]; peptide 13 KMT2D_2674_2695, 0.05 mM vs solvent (2% DMSO)",0.589
same,log fold change,"[1]; peptide 14 LCOR_41_62, 0.05 mM vs solvent (2% DMSO)",1.238
same,log fold change,"[1]; peptide 15 MAPE_250_271, 0.05 mM vs solvent (2% DMSO)",0.090
same,log fold change,"[1]; peptide 16 MAPE_301_322, 0.05 mM vs solvent (2% DMSO)",−0.294
same,log fold change,"[1]; peptide 17 MED1_593_614, 0.05 mM vs solvent (2% DMSO)",0.949
same,log fold change,"[1]; peptide 18 MEN1_256_277, 0.05 mM vs solvent (2% DMSO)",0.192
same,log fold change,"[1]; peptide 19 MGMT_87_108, 0.05 mM vs solvent (2% DMSO)",0.250
same,log fold change,"[1]; peptide 20 MLL2_4176_4197, 0.05 mM vs solvent (2% DMSO)",0.650
same,log fold change,"[1]; peptide 21 MLL2_4703_4724, 0.05 mM vs solvent (2% DMSO)",0.531
same,log fold change,"[1]; peptide 22 NCOA1_1421_1441, 0.05 mM vs solvent (2% DMSO)",1.715
same,log fold change,"[1]; peptide 23 NCOA1_679_700, 0.05 mM vs solvent (2% DMSO)",1.097
same,log fold change,"[1]; peptide 24 NCOA1_738_759, 0.05 mM vs solvent (2% DMSO)",1.340
same,log fold change,"[1]; peptide 25 NCOA2_630_651, 0.05 mM vs solvent (2% DMSO)",1.253
same,log fold change,"[1]; peptide 26 NCOA2_679_700, 0.05 mM vs solvent (2% DMSO)",1.777
same,log fold change,"[1]; peptide 27 NCOA2_734_755, 0.05 mM vs solvent (2% DMSO)",1.465
same,log fold change,"[1]; peptide 28 NCOA2_867_888, 0.05 mM vs solvent (2% DMSO)",0.263
same,log fold change,"[1]; peptide 29 NCOA3_610_631, 0.05 mM vs solvent (2% DMSO)",1.176
same,log fold change,"[1]; peptide 30 NCOA3_674_695, 0.05 mM vs solvent (2% DMSO)",0.197
same,log fold change,"[1]; peptide 31 NCOA3_726_747, 0.05 mM vs solvent (2% DMSO)",1.029
same,log fold change,"[1]; peptide 32 NCOA4_316_337, 0.05 mM vs solvent (2% DMSO)",0.839
same,log fold change,"[1]; peptide 34 NCOR1_1925_1946, 0.05 mM vs solvent (2% DMSO)",0.398
same,log fold change,"[1]; peptide 35 NCOR1_2040_2061, 0.05 mM vs solvent (2% DMSO)",0.391
same,log fold change,"[1]; peptide 36 NELFB_329_350, 0.05 mM vs solvent (2% DMSO)",0.195
same,log fold change,"[1]; peptide 38 NR0B1_2_23, 0.05 mM vs solvent (2% DMSO)",0.415
same,log fold change,"[1]; peptide 39 NR0B2_107_128, 0.05 mM vs solvent (2% DMSO)",1.538
same,log fold change,"[1]; peptide 41 NRIP1_174_195, 0.05 mM vs solvent (2% DMSO)",0.213
same,log fold change,"[1]; peptide 42 NRIP1_369_390, 0.05 mM vs solvent (2% DMSO)",1.027
same,log fold change,"[1]; peptide 43 NRIP1_489_510, 0.05 mM vs solvent (2% DMSO)",0.954
same,log fold change,"[1]; peptide 44 NRIP1_701_722, 0.05 mM vs solvent (2% DMSO)",0.609
same,log fold change,"[1]; peptide 45 NRIP1_810_831, 0.05 mM vs solvent (2% DMSO)",0.909
same,log fold change,"[1]; peptide 46 NRIP1_925_946, 0.05 mM vs solvent (2% DMSO)",0.970
same,log fold change,"[1]; peptide 47 NSD1_895_916, 0.05 mM vs solvent (2% DMSO)",0.886
same,log fold change,"[1]; peptide 48 PAGR1_103_124, 0.05 mM vs solvent (2% DMSO)",1.057
same,log fold change,"[1]; peptide 49 PAK6_249_270, 0.05 mM vs solvent (2% DMSO)",0.362
same,log fold change,"[1]; peptide 50 PCAF_179_200, 0.05 mM vs solvent (2% DMSO)",0.771
same,log fold change,"[1]; peptide 51 PELP1_169_190, 0.05 mM vs solvent (2% DMSO)",0.496
same,log fold change,"[1]; peptide 52 PELP1_21_42, 0.05 mM vs solvent (2% DMSO)",0.888
same,log fold change,"[1]; peptide 53 PELP1_447_468, 0.05 mM vs solvent (2% DMSO)",0.771
same,log fold change,"[1]; peptide 54 PIAS2_7_28, 0.05 mM vs solvent (2% DMSO)",0.383
same,log fold change,"[1]; peptide 55 PNRC1_306_327, 0.05 mM vs solvent (2% DMSO)",0.568
same,log fold change,"[1]; peptide 56 PPRC1_152_173, 0.05 mM vs solvent (2% DMSO)",0.380
same,log fold change,"[1]; peptide 57 PR285_1106_1127, 0.05 mM vs solvent (2% DMSO)",1.167
same,log fold change,"[1]; peptide 58 PRGC1_134_154, 0.05 mM vs solvent (2% DMSO)",1.669
same,log fold change,"[1]; peptide 59 PRGC2_146_166, 0.05 mM vs solvent (2% DMSO)",0.902
same,log fold change,"[1]; peptide 60 PRGC2_338_358, 0.05 mM vs solvent (2% DMSO)",1.230
same,log fold change,"[1]; peptide 61 PROX1_58_79, 0.05 mM vs solvent (2% DMSO)",0.547
same,log fold change,"[1]; peptide 62 RAD9A_349_370, 0.05 mM vs solvent (2% DMSO)",0.503
same,log fold change,"[1]; peptide 63 TIF1A_748_769, 0.05 mM vs solvent (2% DMSO)",0.930
same,log fold change,"[1]; peptide 64 TIP60_477_498, 0.05 mM vs solvent (2% DMSO)",0.672
same,log fold change,"[1]; peptide 65 TREF1_169_190, 0.05 mM vs solvent (2% DMSO)",0.886
same,log fold change,"[1]; peptide 66 TRRAP_972_993, 0.05 mM vs solvent (2% DMSO)",1.371
same,log fold change,"[1]; peptide 67 TRXR1_133_154, 0.05 mM vs solvent (2% DMSO)",0.623
same,log fold change,"[1]; peptide 68 UBE3A_650_671, 0.05 mM vs solvent (2% DMSO)",1.430
same,log fold change,"[1]; peptide 69 WIPI1_120_141, 0.05 mM vs solvent (2% DMSO)",1.049
same,log fold change,"[1]; peptide 70 ZNHI3_90_111, 0.05 mM vs solvent (2% DMSO)",0.814
same,weighted log fold change,[2]; peptide 22 NCOA1_1421_1441,1.715
same,weighted log fold change,[2]; peptide 31 NCOA3_726_747,0.515
same,weighted log fold change,[2]; peptide 39 NR0B2_107_128,0.769
same,weighted log fold change,[2]; peptide 42 NRIP1_369_390,0.128
same,weighted log fold change,[2]; peptide 45 NRIP1_810_831,0.057

# Reference: patent publication US20240145031A1, “Methods and devices for drug repositioning and drug repurposing as nuclear receptor modulators” (Precision Medicine Lab, priority 2022, published 2024)
